Reference: patent publication US20230073755A1, “USE OF IGF1 IN COMBINATION WITH IGFEC24 IN PREPARATION OF MEDICINE FOR PROMOTING TISSUE REPAIR AND REGENERATION” (Chongqing University, priority 2020, published 2023)

Assays:
myocardial tissue = test: Myocardial injury repair in rat model of isoproterenol (ISO) myocardial injury; assay type: in vivo
Experimental: The rats were randomly selected and assigned into injection and control groups, with three rats in each group. The myocardial injury model was constructed by injecting an overdose of ISO at a dose of 80 mg/kg. The rats were fixed with a fixator to expose the abdomen; the rats were disinfected by wiping with alcohol cotton balls, and the amount of ISO injected was matched to their body weight, and then the rats were injected intraperitoneally for 1 week.
The rat was fixed with a fixator to keep its tail naturally down; before injection, the rat's tail was soaked in warm water for 3-4 min until the tail vein was seen clearly; then the rat's tail was wiped with an alcohol cotton ball for disinfection; then, when injecting the protein, the needle was injected at a minimal angle to the tail vein to keep it horizontal; after pushing the drug into the blood vessel, the wound was pressed with an alcohol cotton ball, and then the needle was withdrawn.
In order to fully remove the paraffin from the top of the slices, Paraffin sections of myocardial tissues were completely immersed in xylene twice, each time for 15 min; then the paraffin sections of cardiac tissues were placed into 100% ethanol solution, 95% ethanol solution, 75% ethanol solution, 50% ethanol solution and 3dH2O in turn, with a soaking time of 10 min for each gradient. The paraffin sections were removed and hematoxylin was added dropwise at the myocardial tissue in the sections for nuclear staining with a staining time of 8 min. immediately after the staining was completed, the sections were rinsed with tap water for 5 min, then differentiation solution was added dropwise at the myocardial tissue in the sections with a differentiation time of 20 s, and finally the sections were rinsed with tap water for 5 min. the sections were removed and eosin staining solution was added dropwise at the tissue with a staining time of 1 min, and finally the sections were rinsed with tap water Rinse the slices for 5 min. soak the paraffin sections according to a gradient of 50%, 75%, 95% and 100% ethanol, each for 5 min; then soak them twice in xylene for 2 min/time. Paraffin sections were removed from xylene, keeping xylene still retained on the sections; neutral gum was quickly added dropwise, and coverslips were picked up with forceps, and the coverslips were put down slowly.
The sections were soaked in xylene twice for 15 min/time; soaked sequentially according to a gradient of anhydrous ethanol, 95%, 75% and 50% alcohol solutions, each gradient for 5 min; finally the sections were soaked in triple distilled water for 5 min. equal amounts of Weigert iron hematoxylin A solution and B solution were mixed, and the mixture was added dropwise to the tissues, stained The sections were removed, and differentiation solution was added dropwise to the myocardial tissue for 20 s, and rinsed with tap water for 5 min. bluing solution was added dropwise to the tissue of the sections, and returned to blue treatment for 5 min, and rinsed with tap water for 5 min. lixin red magenta staining solution was added dropwise to the tissue of the sections, and staining time was 1 min, and rinsed with tap water for 5 min. 20% of Add phosphomolybdic acid solution dropwise on the tissue, stain for 5 min, pour off the phosphomolybdic acid solution on the section. Aniline blue staining solution was added dropwise for 5 min to re-stain the sections, and the aniline blue solution on the sections was poured off. […]

cardiomyocytes = test: Cardiomyocyte proliferation effect assay (Edu / cTnI immunofluorescence of heart tissue), adult female SD rats; assay type: in vivo; conditions: tail vein injection 7 consecutive days, IGF1-24 100 μg/kg or molar equivalents, FIG. 1-2
Experimental: In certain embodiments, adult female SD rats were divided into five groups: PBS group, IGF1 group, IGF1Ec group, IGF1-24 group, and IGF1+IGF1Ec24 peptide group, with three rats in each group. The rats in each group were distinguished by ear clipping for subsequent protein injection according to the different body weights of the rats.
The rats in each group were injected with PBS, IGF1, IGF1Ec24 peptide, IGF1Ec and IGF1-24 for 7 consecutive days. Recombinant protein IGF1-24 was injected at 100 μg/kg, and the injection of the remaining proteins in each group was converted according to the molar amount of IGF1-24 injection as follows: 90 μg/kg for IGF1, 8.9 μg/kg for IGF1Ec24 peptide, 104 μg/kg for IGF1Ec.
Before protein injection, the rats were first weighed with a bench scale, and their body weight and the amount of protein injected were recorded and converted; then the rats were fixed with a rat fixator and their tails were exposed, and their tails were soaked in hot water for 1-2 min to stretch the tail vessels and facilitate the search for blood vessels; then the tails were wiped with alcohol cotton balls; after the tail vein was identified, the needle was inserted into the vessel at a 45° angle to the tail vein and the drug was slowly pushed in; the needle before pressing the wound with cotton to stop the bleeding, and then pull out the needle. […]

Substance: IGF1-24: 97 amino acids: amino-terminal 70 identical to IGF1, carboxyl-terminal 24 identical to IGFEc24 peptide, joined by three Gly linkers (SEQ ID NO: 4)
- Masson staining: area of cardiac fibrosis (myocardial tissue; ISO+IGF1-24-treated group vs ISO-injured group, FIG. 12): significantly reduced
- HE staining of cardiac tissue: repair effect (myocardial tissue; ISO+IGF1-24 group compared with ISO+PBS group, FIG. 10): the repair effect was obvious
- rate of PH3 positive cells in myocardial tissue (myocardial tissue; after ISO injury and IGF1-24 treatment, injury without treatment 0.1%, FIG. 13A-B): 0.8%
- rate of Edu positive cells in myocardial tissue (myocardial tissue; after ISO injury and IGF1-24 treatment, injury without treatment 0.5%, FIG. 13A-B): 1.4%
- number of Ki67-positive cells (immunohistochemistry of heart tissue) (myocardial tissue; treatment group vs injury group, FIG. 13C): differed significantly
- number of Edu-positive cardiomyocytes (cardiomyocytes): 2.6%
